# Where two headings read alike, the source gives them in different places.
# Legend:
# human 5-HT3A receptor = target: T1, human 5-HT3A receptor (Homo sapiens, UniProt P46098); format: cell-based
# T1 construct: expressed in transfected cells; host or cells: HEK293-AEQ17 cells (HEK 293 stably expressing apoaequorin), transient transfection
# T1 sequence (P46098 24-478): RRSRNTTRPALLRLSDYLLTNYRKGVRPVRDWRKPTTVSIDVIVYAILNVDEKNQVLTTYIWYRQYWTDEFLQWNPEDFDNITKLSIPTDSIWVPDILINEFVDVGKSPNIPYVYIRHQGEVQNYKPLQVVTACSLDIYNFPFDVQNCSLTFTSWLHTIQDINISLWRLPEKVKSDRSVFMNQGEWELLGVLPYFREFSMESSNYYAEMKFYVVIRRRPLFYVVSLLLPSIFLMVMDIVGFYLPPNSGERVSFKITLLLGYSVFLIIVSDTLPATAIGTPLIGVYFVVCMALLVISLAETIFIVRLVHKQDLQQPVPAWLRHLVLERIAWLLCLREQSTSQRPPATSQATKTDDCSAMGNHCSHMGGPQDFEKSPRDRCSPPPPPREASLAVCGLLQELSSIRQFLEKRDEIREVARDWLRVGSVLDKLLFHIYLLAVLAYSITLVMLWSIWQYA
# Procedure: Cells were seeded in 25-cm^2 cell culture flasks in Dulbecco’s modified Eagle’s medium (DMEM)/Ham’s F12 (1:1) + 10% fetal bovine serum to obtain a cell density of 50% to 70%, and the following day, transiently transfected with cDNA encoding human 5-HT3A receptor (3 µg) using Lipofectamine 2000 reagent (Thermo Fisher Scientific-Invitrogen, Waltham, MA) according to the manufacturer’s instructions. Two days after transfection, cells were harvested by centrifugation and resuspended in 0.5 ml (25-cm^2 flask) DMEM/Ham’s F12 (1:1) + 0.1% bovine serum albumin. The cell suspension was incubated with 10 μM Coelenterazine h (Thermo Fisher Scientific-Invitrogen, Waltham, MA, USA) for three hours at room temperature in the dark. […] Luminescence was measured using a Luminoskan (Thermo Fisher Scientific, Waltham, MA, USA) equipped with an injector and recorded at a sampling rate of 2 Hz for up to 60 s. At the end of the experiments, cells were lysed with Triton X-100 0.1% (v/v) and CaCl2 50 mM, and aequorin luminescence was recorded to obtain the maximum Ca^2+ response. […] Data were exported to software Origin™ 8.5 (Originlab Corp. Northampton, MA, USA).
# human 5-HT3 receptor = target: T2, human 5-HT3 receptor (Homo sapiens, UniProt P46098); assay: Two-electrode voltage clamp of 5-HT-induced currents in Xenopus oocytes expressing human 5-HT3A receptor; format: cell-based; design: host or cells: Xenopus laevis oocytes injected with cRNA
# T2 sequence (P46098 24-478): T1 sequence (P46098 24-478)
# Text: Mature female Xenopus laevis frogs were obtained from Xenopus leavis I, Ann Arbor, MI, USA. Experiments and methods used in this study were in accordance with the Guide for the Care and Use of Laboratory Animals of the National Institutes of Health (Bethesda, MD, USA) and our protocol (A9/08) was approved by the Institutional Animal Care and Use Committee at the College of Medicine and Health Sciences, United Arab Emirates University. Clusters of oocytes were removed surgically under benzocaine (0.03% w/v; Sigma, St.Louis, MO) anesthesia. Individually dissected oocytes were stored for 2 to 8 days in modified Barth’s solution (MBS) containing (in mM): NaCl 88; KCl 1; NaHCO3 2.4; CaCl2; 2; MgSO4 0.8; HEPES 10 (pH 7.5), supplemented with sodium pyruvate 2 mM, penicillin 10,000 IU/L, streptomycin 10 mg/L, gentamicin 50 mg/L, and theophylline 0.5 mM. […] In co-expression of subunit combinations, cDNAs for 5-HT3A and 5-HT3B subunits, were mixed in ratios of 1:1 (or 1:2), respectively. Following day, oocytes were placed in a 0.2 ml recording chamber and superfused at a constant rate of 3 to 5 ml/min. […] The oocytes were impaled with two standard glass microelectrodes filled with a 3 M KCl (1–3 MΩ) and voltage clamped at a holding potential of −70 mV using GeneClamp-500B amplifier (Axon Instruments Inc., Burlingame, CA). […] Compounds were applied by addition to the superfusate. […] Injections were performed 10 min prior to recordings using oil-driven ultra microsyringe pumps (Micro4; WPI, Inc. Sarasota, FL, USA).
# The cDNA clones of the human 5-HT3A and 5-HT3B subunits were provided by OriGen Inc. (Rockville, MD). Complementary RNAs (cRNAs) were synthesized in vitro using a mMessage mMachine RNA transcription kit (Ambion Inc., Austin, TX). The quality and size of synthesized cRNAs were confirmed by denatured RNA agarose gels.
# For the nonlinear curve fitting and regression fits of the dose-response curves and radio-ligand binding data, the computer software Origin™ 8.5 (Originlab Corp. Northampton, MA, USA) was used. In functional assays, average values were calculated as mean ± standard error means (S.E.M.). Statistical significance was analyzed using ANOVA or Student’s t test and post hoc Bonferroni test was used following ANOVA. Concentration-response curves were obtained by fitting the data to the logistic equation, […]
# [1] = design: method as in Lee et al., 1997; Wohlrab et al., 2015; details: assumed value; ref Lee et al., 1997; Wohlrab et al., 2015; cited from earlier work
# K+ channels = details: cited from earlier work
# Ca2+ channels = details: cited from earlier work
# [2] = design: method as in Rollyson et al., 2014; Swain and Kumar Mishra, 2015; details: ref Rollyson et al., 2014; Swain and Kumar Mishra, 2015; cited from earlier work
# human 5-HT3AB receptors = target: T3, human 5-HT3AB receptors (Homo sapiens, UniProt O95264+P46098); assay: Two-electrode voltage clamp in Xenopus oocytes co-expressing 5-HT3A and 5-HT3B subunits; format: cell-based; details: 100 µM; 3 µM 5-HT for 5-HT3A and 30 µM 5-HT for 5-HT3AB; n = 5–7, P>0.05
# T3 construct: host or cells: Xenopus laevis oocytes, subunits injected at ratios 1:1 or 1:2
# T3 sequence (P46098 24-478): T1 sequence (P46098 24-478)
# T3 sequence (O95264 22-441): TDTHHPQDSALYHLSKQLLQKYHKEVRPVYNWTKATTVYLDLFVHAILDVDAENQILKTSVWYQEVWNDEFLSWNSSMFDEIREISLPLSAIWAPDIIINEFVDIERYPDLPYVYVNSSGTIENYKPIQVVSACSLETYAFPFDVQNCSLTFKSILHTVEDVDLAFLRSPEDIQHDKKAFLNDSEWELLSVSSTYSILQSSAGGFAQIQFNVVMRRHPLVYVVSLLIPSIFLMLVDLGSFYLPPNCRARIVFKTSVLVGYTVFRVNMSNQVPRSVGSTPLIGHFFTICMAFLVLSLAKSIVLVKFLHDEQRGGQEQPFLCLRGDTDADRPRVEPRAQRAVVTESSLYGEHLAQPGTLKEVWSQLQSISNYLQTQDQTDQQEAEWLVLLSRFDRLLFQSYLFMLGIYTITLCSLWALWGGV
# Text: Mature female Xenopus laevis frogs were obtained from Xenopus leavis I, Ann Arbor, MI, USA. Experiments and methods used in this study were in accordance with the Guide for the Care and Use of Laboratory Animals of the National Institutes of Health (Bethesda, MD, USA) and our protocol (A9/08) was approved by the Institutional Animal Care and Use Committee at the College of Medicine and Health Sciences, United Arab Emirates University. Clusters of oocytes were removed surgically under benzocaine (0.03% w/v; Sigma, St.Louis, MO) anesthesia. Individually dissected oocytes were stored for 2 to 8 days in modified Barth’s solution (MBS) containing (in mM): NaCl 88; KCl 1; NaHCO3 2.4; CaCl2; 2; MgSO4 0.8; HEPES 10 (pH 7.5), supplemented with sodium pyruvate 2 mM, penicillin 10,000 IU/L, streptomycin 10 mg/L, gentamicin 50 mg/L, and theophylline 0.5 mM. Human 5-HT3A receptor cRNA (3 ng in 50 nl) was injected into each oocyte as described before ([Ashoor et al., 2013]). In co-expression of subunit combinations, cDNAs for 5-HT3A and 5-HT3B subunits, were mixed in ratios of 1:1 (or 1:2), respectively. […] Current responses were digitized by A/D converter and analyzed using pClamp 10.4 (Molecular Devices-Axon Instruments, San Jose, CA USA) or Origin™ (Originlab Corp. Northampton, MA, USA), run on an IBM/PC. […]
# [3] = system: voltage-gated Na+ channels; details: cited from earlier work
smiles,measurement,setting,value
"NCCc1c[nH]c2ccc(O)cc12 [5-HT, 5-hydroxytryptamine]",luminescence activation in cells not transfected with 5-HT3,"human 5-HT3A receptor; 30 μM, coelenterazine h-loaded HEK-293-AEQ17 cells, n = 4",did not cause luminescence activation
same,slope of the aequorin concentration-response curve,human 5-HT3A receptor; HEK-293-AEQ17 cells transfected with human 5-HT3 receptor,2.7
"CN1[C@@H]2CC[C@H]1C[C@@H](OC(=O)c1cc(Cl)cc(Cl)c1)C2 [MDL72222, Tropanyl 3,5-dichlorobenzoate]",inhibition of fast inward currents activated by 5-HT (1 μM) or 2-methyl-5-HT (10 μM),"human 5-HT3 receptor; 0.5 µM, n = 7",completely inhibited
"COc1cc(CNC(=O)CCCC/C=C/C(C)C)ccc1O [capsaicin, (E)-N-[(4-Hydroxy-3-methoxyphenyl)methyl]-8-methyl-6-nonenamide]",fraction of topically applied capsaicin absorbed into the skin,[1],2%
same,IC50,"K+ channels; ref Aréchiga-Figueroa et al., 2017",10 µM
same,IC50,"K+ channels; ref Grissmer et al., 1994",158 µM
same,IC50,"K+ channels; ref Kuenzi and Dale, 1996",21 µM
same,IC50,"K+ channels; ref Wu et al., 2011",103 µM
same,IC50,"Ca2+ channels; ref Castillo et al., 2007",38 µM
same,IC50,"Ca2+ channels; ref Kuenzi and Dale, 1996",44 µM
same,LogP (octanol–water partition coefficient),[2],3.8
same,"extent of inhibition among 5-HT3A, 5-HT3AB (1:1) and 5-HT3AB (1:2) receptors",human 5-HT3AB receptors,not statistically different
same,IC50,"[3]; ref Bielefeldt, 2000",40 µM
same,IC50,"[3]; ref Duan et al., 2007",39 µM
same,IC50,"[3]; ref Tomohiro et al., 2013",100 µM
same,IC50,"[3]; ref Wang et al., 2007",76 µM
Oc1cc2c(cc1O)CN(C(=S)NCCc1ccc(Cl)cc1)CCC2 [capsazepine],"change in amplitudes of 5-HT3 receptor-mediated currents, compound alone","human 5-HT3 receptor; 10 µM, 5-HT 1 µM, n = 4",did not cause any significant change
"COc1cc(CNC(=O)CCCCCCC(C)C)ccc1O [dihydrocapsaicin, Dihydrocapsaicin]",inhibition at 100 µM,human 5-HT3 receptor; read-out: 5-HT3 receptors inhibited to (% ),62%
COc1cc(C=O)ccc1O [vanillin],effect on 5-HT3 receptor currents,"human 5-HT3 receptor; 100 µM for 15 min, n = 8, P>0.05",did not affect
